According to patent publication US20230355705A1, “DISCOVERY OF YEATS2 YEATS DOMAIN INHIBITORS AS NOVEL ANTI-CANCER AGENTS” (The University of Hong Kong, priority 2022, published 2023):
Non-standard residues stand in square brackets, D forms with d. Residues, ends and D or L forms follow the SMILES beside them. *: point of attachment. Benzofuran(2-CO) = O=C(c1cc2ccccc2o1)*; X1 = O=C(c1cc2ccc(Br)cc2o1)*; NMeA = CN[C@@H](C)C(=O)O; Ms = CS(=O)(=O)*

Biological target: T1, YEATS2 YEATS domain (Homo sapiens, UniProt Q9ULM3)
T1 construct: 201-332 containing an N-terminal 10×His-SUMO tag was overexpressed in Escherichia coli BL21 (DE3); 10×His-SUMO (N, cleaved yes); made in house; host or cells: Escherichia coli BL21 (DE3)
T1 sequence (Q9ULM3 201-332 limits assumed): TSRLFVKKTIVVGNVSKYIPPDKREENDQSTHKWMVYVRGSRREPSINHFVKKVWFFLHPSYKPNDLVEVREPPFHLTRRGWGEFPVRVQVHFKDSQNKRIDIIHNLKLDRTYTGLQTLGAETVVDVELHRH
Assay: competitive photo-cross-linking assay
Assay type: binding
Method: The probes in the absence or presence of different concentrations of competitors were incubated with recombinant proteins (5 or 20 ng/µL) in binding buffer (50 mM HEPES, 150 mM NaCl, 2 mM MgCl2, 0.1% Tween-20, 20% glycerol, pH 7.5, with 50 ng/µL BSA) for 10 min at 4° C. Then, the samples were irradiated at 365 nm using UV lamp for 20 min in 96-well on ice.
To the prepared photo-cross-linking samples, we added 100 µM rhodamine-N3 for in-gel fluorescence (10 mM stock in DMSO), followed by 1 mM TCEP (freshly prepared 50 mM stock in H2O) and 100 µM TBTA (10 mM stock in DMSO); finally, the reactions were initiated by the addition of 1 mM CuSO4 (freshly prepared 50 mM stock in H2O). The reactions were incubated for 1 h at room temperature (22 to 25° C.) with regular vortexing. The reactions were quenched by adding 5 volumes of ice-cold acetone and placed at — 20° C. overnight to precipitate proteins.
Samples after protein precipitation were centrifuged at 13,000 × g for 5 min at 4° C. The supernatant was discarded, and the pellet was washed with ice-cooled acetone and air-dried for 10 min. The proteins were resuspended in 1 × LDS sample loading buffer (Invitrogen, Waltham, MA) with 50 mM DTT and heated at 95° C. for 8 min. Samples were then resolved by SDS-PAGE. […]
YEATS domain of YEATS2 is newly identified as histone benzoylation reader. […]

inhibitory activity / potency against YEATS2 YEATS (in words)	IC50 (Table 2)	SMILES
maintained the inhibitory activity		C[C@@H](C(=O)N1CCC[C@H]1C(N)=O)N(C)C(=O)[C@H](CO)NC(=O)[C@H](CCCCNC(=O)c1cc2ccc(Br)cc2o1)NS(C)(=O)=O [HC18] (Ms-K(X1)S[NMeA]P-NH2)
	600 nM	C[C@H](NC(=O)[C@H](CO)NC(=O)[C@H](CCCCNC(=O)c1cc2ccccc2o1)NS(C)(=O)=O)C(=O)N1CCC[C@H]1C(N)=O [MsKSAP] (Ms-K(Benzofuran(2-CO))SAP-NH2)
